Values joined by “and” are separate entries in the source; they are usually repeats but may differ in a detail not shown here. Identical values can stand only once.
Key:
[1] = Plasma-protein binding, rat; type: in vitro ADME; settings: Sprague-Dawley, pH 7.4
Procedure: Tests were conducted by WuXi AppTec, Co., China, using the equilibrium dialysis method and a 96-well plate format. The test compound (at 2 μM, in triplicate) in solution in plasma (Balb/c mouse, golden (Syrian) hamster, Sprague-Dawley rat, Beagle dog or human) was dialyzed against 100 mM phosphate-buffered saline (pH 7.4) on a rotating plate incubated for 6 h at 37 °C. Following the precipitation of protein with acetonitrile or acetonitrile/methanol containing both 1% phosphoric acid, the amount of compound present in each compartment was quantified by LC-MS/MS.

[2] = Metabolite identification in microsomes; type: in vitro ADME, rat, mouse, dog, human, hamster
Procedure: Metabolite identification studies were conducted at WuXi AppTec, China. DNDI-6148 was incubated at 10 μM in the presence of Beagle dog and Sprague-Dawley rat liver microsomes (1 mg/mL) for 60 min. Following precipitation with a solution of formic acid and acetonitrile, metabolites were identified by LC-UV-MSn (n = 1–2).

[3] = test system: Salmonella typhimurium strains (TA98 and TA100); assay: Mini-Ames reverse mutation screen; type: cell-based; settings: TA98 and TA100, with and without metabolic activation, 1.5 to 1000 μg/well
Procedure: Mini-Ames reverse mutation screens were conducted by WuXi AppTec, Co., China. Two Salmonella typhimurium strains (TA98 and TA100) were employed, both in the presence and absence of metabolic activation (induced rat liver S9). Test compounds were assessed at doses of 1.5, 4, 10, 25, 64, 160, 400, and 1000 μg per well, 2-aminoanthracene, 2-nitrofluorene, and sodium azide were used as positive controls, and the negative control was DMSO.

[4] = Liver microsome stability, dog; type: in vitro ADME; settings: Beagle, dog liver microsomes, pH 7.4
Procedure: (§1) Tests were performed by WuXi AppTec, China. Test compounds (at 1 μM) or positive controls (testosterone, propafenone, and diclofenac) were incubated at 37 °C with liver microsomes from Balb/c mouse, golden (Syrian) hamster, Sprague-Dawley rat, Beagle dog, or human in the presence of a NADPH regenerating system and phosphate buffer (100 mM, pH 7.4) at 0.4 or 0.8 mg/mL microsomal protein. The samples were removed at time intervals from 0 to 60, 90, or 120 min and immediately mixed with cold methanol supplemented or not with acid (3% formic acid) and centrifuged prior to analysis by LC-MS/MS using tolbutamide or propranolol as internal standards.

[5] = test system: L. donovani clones, CPSF3 Asn219His; assay: Drug sensitivity, L. donovani CRISPR-Cas9 edited CPSF3 Asn219His; type: cell-based; settings: listed as DNDI-6148
Procedure: (§2) A cell line constitutively expressing Cas9 and T7 RNA polymerase was generated by transfecting 4 × 10^7 promastigotes with the pTB007 vector (10 μg), as previously described.[29] Expression of Cas9 in selected clones was confirmed by western blotting (Figure S1). In addition, the CRISPR-Cas9 system in these parasites was confirmed as functional following the successful tagging of the flagellar protein PF16 with mNeonGreen, as previously described.[29]
(§3) To introduce specific mutations into CPSF3, 3 × 10^6 promastigotes expressing Cas9 and T7 RNA were resuspended in a 110 μL of Human T-Cell Nucleofector reagent and transfected with 18 μL of sgRNA and 4 μg of template using the Amaxa Nucleofector electroporator (program V-033). sgRNA was produced according to the previously established protocol from the Gluenz lab,[30] in which the scaffold primer G00 and a gene-specific forward primer (FwsgRNA) were used (Table S1). Twenty-four hours following transfection, DNDI-6148 was added to cultures at 6 μM. Drug-selected populations were cloned by limiting dilution, EC50s were determined, and genomic DNA was extracted. The CPSF3 gene from CRISPR-edited parasites was amplified by PCR, and the resulting products were sequenced.
(§4) Drug sensitivity assays with wild-type and transgenic T. brucei and L. donovani cell lines were carried out as previously described.[31],[32]

[6] = test system: L. donovani clones, CPSF3 Asn219His/Glu229Val; assay: Drug sensitivity, L. donovani CRISPR-Cas9 edited CPSF3 Asn219His/Glu229Val; type: cell-based
Procedure: as §2, §3, §4

[7] = test system: panel of 88 targets (Cerep panel); assay: Off-target panel (Eurofins Cerep panel); settings: at a concentration of 10 μM
CYP1A2 = CYP1A2 (Homo sapiens, UniProt P05177); assay: CYP inhibition, CYP1A2; type: in vitro ADME; settings: human liver microsomes
Procedure: (§5) The study was conducted by WuXi AppTec, Co., China, using the time-dependent (TDI) method. […] Following incubation with substrates (phenacetin for 1A2, diclofenac for 2C9, S-(+) mephenytoin for 2C19, dextromethorphan for 2D6, and midazolam or testosterone for 3A4), reactions were stopped by adding ice-cold acetonitrile, the samples were analyzed for the formation of metabolites by LC-MS/MS, and the percentage of inhibition was determined.

[8] = test system: CPSF3 (Asn219His)-overexpressing L. donovani promastigotes; assay: Drug sensitivity, CPSF3 (Asn219His)-overexpressing L. donovani promastigotes; type: cell-based; settings: Leishmania donovani
Procedure: The clonal L. donovani cell line LdBOB (derived from MHOM/SD/62/1S-CL2D) was grown as promastigotes at 28 °C, as described previously. Bloodstream form T. brucei MiTat 1.2 clone 221a and its derived subline, 2T1, were cultured at 37 °C in the presence of 5% CO2 in HMI9-T medium, as described previously. T. brucei cell lines overexpressing CPSF3 and overexpressing a mutated version of CPSF3 (Asn232His) were generated as part of a previous study and cultured as described.[19]
L. donovaniCPSF3 gene (LdBPK_343210.1) was custom synthesized by GeneArt and ligated into the pIR1SAT vector via BglII restriction sites. Using the Q5 mutagenesis kit (NEB) and the pIR1SAT-LdCPSF3^WT construct as a template, mutations encoding A655C and Asn219His change to CPSF3^WT were introduced. Mutations were introduced using the specific primers 5′-GAGTACACGGCATCCGC-3′ and 5′-[…]-3′ and as per manufacturers’ instructions. Wild-type and mutated pIR1SAT constructs were digested with SwaI and transfected into L. donovani promastigotes, as previously described. Resistant clones were selected with nourseothricin (100 μg/mL), and two clones per transfection were selected for further study.
as §4

[9] = Liver microsome stability, mouse; type: in vitro ADME; settings: Balb/c, mouse liver microsomes, pH 7.4
Procedure: as §1

CYP3A4 = CYP3A4 (Homo sapiens, UniProt P08684); assay: CYP inhibition, CYP3A4; type: in vitro ADME; settings: human liver microsomes
Procedure: as §5

in vivo = settings: both, Sprague-Dawley, rat

Chain of CYP1A2 (P05177 whole entry): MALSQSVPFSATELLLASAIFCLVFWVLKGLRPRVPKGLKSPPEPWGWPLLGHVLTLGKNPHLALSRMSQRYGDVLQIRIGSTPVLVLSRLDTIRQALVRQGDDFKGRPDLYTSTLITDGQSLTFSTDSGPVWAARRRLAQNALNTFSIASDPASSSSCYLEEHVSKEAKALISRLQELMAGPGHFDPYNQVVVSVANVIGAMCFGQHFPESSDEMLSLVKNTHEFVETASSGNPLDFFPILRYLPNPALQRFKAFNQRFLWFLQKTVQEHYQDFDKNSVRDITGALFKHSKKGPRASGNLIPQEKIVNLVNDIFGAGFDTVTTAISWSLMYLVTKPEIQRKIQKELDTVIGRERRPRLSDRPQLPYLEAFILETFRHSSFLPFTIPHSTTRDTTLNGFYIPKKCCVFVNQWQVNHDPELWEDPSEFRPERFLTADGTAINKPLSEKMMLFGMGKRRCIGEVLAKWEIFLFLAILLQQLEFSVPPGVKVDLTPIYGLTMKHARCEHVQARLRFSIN
Chain of CYP3A4 (P08684 2-503 limits assumed): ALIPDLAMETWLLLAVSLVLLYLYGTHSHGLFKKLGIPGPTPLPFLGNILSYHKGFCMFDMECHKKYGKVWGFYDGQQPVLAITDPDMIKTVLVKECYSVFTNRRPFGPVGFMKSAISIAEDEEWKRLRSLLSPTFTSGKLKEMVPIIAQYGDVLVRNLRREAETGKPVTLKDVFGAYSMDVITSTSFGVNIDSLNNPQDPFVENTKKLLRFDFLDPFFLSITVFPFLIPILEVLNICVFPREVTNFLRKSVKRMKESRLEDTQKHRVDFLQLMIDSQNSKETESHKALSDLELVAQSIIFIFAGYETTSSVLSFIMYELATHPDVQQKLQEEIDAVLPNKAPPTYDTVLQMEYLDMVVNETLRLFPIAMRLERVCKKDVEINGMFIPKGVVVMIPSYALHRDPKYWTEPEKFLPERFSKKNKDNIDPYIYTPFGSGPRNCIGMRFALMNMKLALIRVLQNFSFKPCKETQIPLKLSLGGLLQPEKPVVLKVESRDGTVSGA

Row | Structure (SMILES) | fraction unbound at 6 h, 2 µM [1] | reactive metabolite formation ([2]; microsomes, any species) | metabolism in rat microsomes ([2]; rat microsomes) | Ames assay result [3] | microsomal CLint at 1 μM [4] | Fold change (relative to WT) [5] | Fold change (relative to WT) ([6]; CRISPR-Cas9 edited Asn219His/Glu229Val, listed as DNDI-6148) | EC50 ([6]; Leishmania donovani) | activity in panel of 88 targets [7] | IC50 (CYP1A2) | EC50 [8] | microsomal CLint at 1 μM [9] | IC50 (CYP3A4) | NOAEL at 14 days (in vivo)
1 | Cc1c(C(=O)Nc2ccc3c(c2)B(O)OC3)nnn1-c1ccccn1 [Compound 23, N-(1-Hydroxy-1,3-dihydrobenzo[c][1,2]oxaborol-6-yl)-5-methyl-1-(pyridin-2-yl)-1H-1,2,3-triazole-4-carboxamide] | 0.08 | no evidence of reactive metabolite formation | No metabolism was detected | negative | 5.8 µL/min/mg | 3.0 fold and 3 fold | > 5 fold | 2830 ± 139 µM | ≤ 50% | > 50 µM | 1.67 ± 0.051 µM | < 11.9 µL/min/mg | > 50 µM | 
2 | Cc1c(-c2ccccn2)coc1C(=O)Nc1ccc2c(c1)B(O)OC2 [Compound 28, N-(1-Hydroxy-1,3-dihydrobenzo[c][1,2]oxaborol-6-yl)-3-methyl-4-(pyridin-2-yl)furan-2-carboxamide] |  |  |  |  |  |  |  |  |  |  |  |  |  | < 12.5 mg/kg
